Consider 2 molecules from ChEMBL document CHEMBL1149744, “Terpenoids and Alkaloids from Esenbeckia belizencis. Spontaneous Oxidation of Furoquinoline Alkaloids” (J Nat Prod, 1992).

The structures appear in SMILES notation.

The term LC50 denotes the concentration lethal to half of the exposed cells or organisms. Read a high LC50 as lower toxicity.

The data set relates to Artemia salina. In words: Toxicity against Artemia salina. The data set is classed as organism-based. The note with it: in vivo.

`COc1c2ccoc2nc2c(OC)c3c(cc12)OCO3` [FLINDERSIAMINE] returned a 50% lethal concentration (LC50) of over 1000 ppm. In the case of `COc1cc2nc3occc3c(OC)c2cc1OC` [KOKUSAGININE] it was 367 ppm.
